Measurements published in publication PMC5434891, “Tetramethylpyrazine blocks TFAM degradation and up-regulates mitochondrial DNA copy number by interacting with TFAM” (Bioscience Reports, 2017).
One block for each molecule: values may come before it.

Key:
[1] = target: T1, Lon (human mitochondrial Lon protease) (Homo sapiens, UniProt P36776); assay: ADP-Glo ATPase assay with purified Lon; about […] activity left at […]; type: biochemical
T1 construct: gene LONP1
T1 sequence (P36776 68-959): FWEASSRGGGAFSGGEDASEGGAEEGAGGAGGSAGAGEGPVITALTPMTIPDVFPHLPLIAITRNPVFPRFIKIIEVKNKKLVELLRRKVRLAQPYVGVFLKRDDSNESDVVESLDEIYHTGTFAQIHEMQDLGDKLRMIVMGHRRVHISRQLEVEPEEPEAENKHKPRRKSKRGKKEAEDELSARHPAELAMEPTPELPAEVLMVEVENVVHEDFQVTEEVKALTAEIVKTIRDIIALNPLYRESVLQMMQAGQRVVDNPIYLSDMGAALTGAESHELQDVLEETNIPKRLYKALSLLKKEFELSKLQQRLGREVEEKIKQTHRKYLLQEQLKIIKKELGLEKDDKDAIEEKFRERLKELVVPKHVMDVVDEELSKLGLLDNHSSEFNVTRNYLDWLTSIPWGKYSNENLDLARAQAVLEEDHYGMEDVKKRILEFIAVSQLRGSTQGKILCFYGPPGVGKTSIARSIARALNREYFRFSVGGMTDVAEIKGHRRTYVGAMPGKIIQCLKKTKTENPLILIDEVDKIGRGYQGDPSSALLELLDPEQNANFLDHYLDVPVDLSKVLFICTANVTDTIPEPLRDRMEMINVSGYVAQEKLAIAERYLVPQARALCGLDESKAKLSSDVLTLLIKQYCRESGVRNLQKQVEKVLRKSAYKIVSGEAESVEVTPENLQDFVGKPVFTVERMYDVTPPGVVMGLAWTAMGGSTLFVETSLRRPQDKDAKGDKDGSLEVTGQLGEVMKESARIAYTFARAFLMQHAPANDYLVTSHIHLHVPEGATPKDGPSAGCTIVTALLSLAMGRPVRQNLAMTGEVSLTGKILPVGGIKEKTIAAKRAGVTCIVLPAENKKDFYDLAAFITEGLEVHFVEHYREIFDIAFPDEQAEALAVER

[2] = target: T2, TFAM (mitochondrial transcription factor A) (Homo sapiens, UniProt Q00059); assay: protection of purified TFAM from degradation by purified Lon (Western blot); binding itself shown only with the biotinylated conjugate; type: biochemical
T2 sequence (Q00059 43-246): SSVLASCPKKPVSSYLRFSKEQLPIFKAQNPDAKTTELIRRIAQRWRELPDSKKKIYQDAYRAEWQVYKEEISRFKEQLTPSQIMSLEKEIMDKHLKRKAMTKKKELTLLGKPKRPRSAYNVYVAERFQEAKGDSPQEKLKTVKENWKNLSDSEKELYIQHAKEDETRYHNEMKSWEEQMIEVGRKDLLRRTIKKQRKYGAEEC
T2 sequence (P36776 68-959 partner): T1 sequence (P36776 68-959)

[3] = target: T3, TFAM (mitochondrial transcription factor A) (Homo sapiens, UniProt Q00059); assay: streptavidin-sepharose pull-down from cell extracts, immunoblot ([…]); type: cell-based
T3 construct: endogenous TFAM in HeLa ρ+ and HCT116 cell extracts
T3 sequence (Q00059 43-246): T2 sequence (Q00059 43-246)

Structure (SMILES): CC1(C)CC[C@]2(C(=O)O)CC[C@]3(C)[C@H](C(=O)C=C4[C@@]5(C)C=C(C#N)C(=O)C(C)(C)[C@@H]5CC[C@]43C)[C@@H]2C1 [CDDO, 2-cyano-3,12-dioxooleana-1,9(11)-dien-28-oic acid]
- ADP-Glo ATPase assay with purified Lon; about 10% activity left at 200 μM [1]: CDDO inhibited the ATPase activity of Lon in a dose-dependent manner

- protection of purified TFAM from degradation by purified Lon (Western blot); bin [2]: ~ 20 mM
Structure (SMILES): Cc1nc(C)c(C)nc1C [TMP, 2,3,5,6-tetramethylpyrazine]

Structure (SMILES): Cc1nc(C)c(COC(=O)CCCC[C@@H]2SC[C@@H]3NC(=O)N[C@@H]32)nc1C [biotinylated TMP]
- streptavidin-sepharose pull-down from cell extracts, immunoblot (10 μM) [3]: TFAM was specifically pulled down only in complexes containing biotinylated-TMP and SA-sepharose
